We go through nine compounds from patent US20240358707A1, “INHIBITORS OF BRUTON'S TYROSINE KINASE” (Pharmacyclics LLC, priority 2006, published 2024).

Molecules are shown by their SMILES.

Assay [1] deals with DHL-6 cells. In words: DHL-6 cell growth (Alamar Blue assay). The class given is cell-based. (Resazurin is reduced to fluorescent resorufin, in cell work by metabolically active cells.)
The test system of assay [2] is BCR-activated calcium flux in Ramos cells. The experiment in a line: BCR-induced calcium flux assay in Ramos cells. The note with it: Homo sapiens, read-out: Ramos Cell Ca Flux IC50. For orientation: A change in cytosolic calcium serves as a functional read-out for many receptors and channels.
Assay [3] has as its target Btk (Homo sapiens (Human), UniProt Q06187). The experiment in a line: Btk acellular kinase assay (TR-FRET). The class given is biochemical. The conditions noted are these: relative to compound 4. On the technique in general: TR-FRET usually uses a lanthanide donor and a delayed reading to cut background.

Btk, sequence (Q06187 whole entry): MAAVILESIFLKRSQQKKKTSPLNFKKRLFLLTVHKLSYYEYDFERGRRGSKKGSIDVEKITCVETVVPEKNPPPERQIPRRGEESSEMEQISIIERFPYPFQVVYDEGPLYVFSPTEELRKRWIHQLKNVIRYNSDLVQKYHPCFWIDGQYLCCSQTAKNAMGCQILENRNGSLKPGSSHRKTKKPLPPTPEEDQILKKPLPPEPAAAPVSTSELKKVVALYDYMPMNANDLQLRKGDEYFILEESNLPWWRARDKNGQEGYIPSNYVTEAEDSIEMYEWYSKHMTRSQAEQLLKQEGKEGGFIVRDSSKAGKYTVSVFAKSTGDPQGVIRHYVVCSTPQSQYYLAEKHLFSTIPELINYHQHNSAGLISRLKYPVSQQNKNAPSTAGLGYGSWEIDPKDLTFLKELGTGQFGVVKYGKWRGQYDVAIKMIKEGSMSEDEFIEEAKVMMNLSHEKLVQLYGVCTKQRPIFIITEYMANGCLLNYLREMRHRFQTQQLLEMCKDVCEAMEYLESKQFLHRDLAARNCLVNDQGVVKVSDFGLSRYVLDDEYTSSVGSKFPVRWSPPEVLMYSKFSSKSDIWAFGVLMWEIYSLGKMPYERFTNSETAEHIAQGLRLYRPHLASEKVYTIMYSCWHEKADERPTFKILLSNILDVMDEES

As for `CN(C)C/C=C/C(=O)N1CCC[C@@H](n2nc(-c3ccc(Oc4ccccc4)cc3)c3c(N)ncnc32)C1` [Compound 15, (E)-1-(3-(4-amino-3-(4-phenoxyphenyl)-1H-pyrazolo[3,4-d]pyrimidin-1-yl)piperidin-1-yl)-4-(dimethylamino)but-2-en-1-one], the “Growth of DHL-6 cells” value in assay [1] (24 h treatment) and in assay [1] (48 h treatment) was “inhibits growth” throughout. Besides, the half-inhibitory concentration (IC50) (usually the midpoint of a concentration-inhibition curve) in assay [2] turned out to be 36 nM. Turning to `C=CC(=O)N1CCC(n2nc(-c3ccc(Oc4ccccc4)cc3)c3c(N)ncnc32)CC1` [Compound 9, 1-(4-(4-amino-3-(4-phenoxyphenyl)-1H-pyrazolo[3,4-d]pyrimidin-1-yl)piperidin-1-yl)prop-2-en-1-one], the 50% inhibitory concentration (IC50) in assay [2] stood at 48 nM. In the case of `C=CC(=O)N1CC[C@H](n2nc(-c3ccc(Oc4ccccc4)cc3)c3c(N)ncnc32)C1` [Compound 12, 1-((S)-3-(4-amino-3-(4-phenoxyphenyl)-1H-pyrazolo[3,4-d]pyrimidin-1-yl)pyrrolidin-1-yl)prop-2-en-1-one], the IC50 in assay [2] worked out at 90 nM. On to `C=CS(=O)(=O)N1CCCC(n2nc(-c3ccc(Oc4ccccc4)cc3)c3c(N)ncnc32)C1` (stereo not drawn) [Compound 6, 1-(3-(4-amino-3-(4-phenoxyphenyl)-1H-pyrazolo[3,4-d]pyrimidin-1-yl)piperidin-1-yl)sulfonylethene], for which the half-inhibitory concentration (IC50) in assay [2] came out at 92 nM. As for `C#CC(=O)N1CCCC(n2nc(-c3ccc(Oc4ccccc4)cc3)c3c(N)ncnc32)C1` (stereo not drawn) [Compound 8, 1-(3-(4-amino-3-(4-phenoxyphenyl)-1H-pyrazolo[3,4-d]pyrimidin-1-yl)piperidin-1-yl)prop-2-yn-1-one], in assay [2], the IC50 amounted to 9 nM. With `C/C=C/C(=O)N1CCCC(n2nc(-c3ccc(Oc4ccccc4)cc3)c3c(N)ncnc32)C1` (stereo not drawn) [Compound 5, (E)-1-(3-(4-amino-3-(4-phenoxyphenyl)-1H-pyrazolo[3,4-d]pyrimidin-1-yl)piperidin-1-yl)but-2-en-1-one], in assay [3], the “Fold less potent than compound 4 (Btk)” value was 28 fold. Moreover, in assay [2], the concentration for half-maximal inhibition (IC50) was found to be 89 nM. As for `C=CC(=O)N1CC[C@@H](n2nc(-c3ccc(Oc4ccccc4)cc3)c3c(N)ncnc32)C1` [Compound 11, 1-((R)-3-(4-amino-3-(4-phenoxyphenyl)-1H-pyrazolo[3,4-d]pyrimidin-1-yl)pyrrolidin-1-yl)prop-2-en-1-one], the IC50 in assay [2] came out at 24 nM. `C=CC(=O)N[C@H]1CC[C@@H](n2nc(-c3ccc(Oc4ccccc4)cc3)c3c(N)ncnc32)CC1` [Compound 10, N-((1s,4s)-4-(4-amino-3-(4-phenoxyphenyl)-1H-pyrazolo[3,4-d]pyrimidin-1-yl)cyclohexyl)acrylamide]: the 50% inhibitory concentration (IC50) in assay [2] was determined as 3 nM. `Nc1ncnc2c1c(-c1ccc(Oc3ccccc3)cc1)nn2C1CCCN(C(=O)CCl)C1` (stereo not drawn) [Compound 7]: the IC50 in assay [2] is 9 nM.
